Series [1] in a line: Aqueous solubility compared to paclitaxel. Type of series: physicochemical.
The test system of series [2] is KPC 4662 murine pancreatic tumor. Description: In vivo assessment of PTX-sNHS induced apoptosis (cleaved caspase 3 staining). Set-up: species or system C57BL/6 mice. The settings on record: 72 hours after single intratumoral injection, 20 mg/kg.
Text: To assess the ability of intratumoral depots to release free paclitaxel and induce apoptotic tumor cell death, ectopic pancreatic tumor model was developed by subcutaneous inoculation of approximately 1*10^6 KPC 4662 murine pancreatic tumor cells in 1:1 PBS/matrigel (Corning/cat #354234) solution on the dorsal flanks of 8 week old female albino C57BL/6 mice (Charles River). Once the tumors were approximately 100 mm^3 in volume, animals were randomly divided into four groups to receive either no treatment or single intratumoral injection of vehicle (50% NMP: alfa aesar, #AA44063-K2, 50% Saline: cat #470302-026, VWR), free paclitaxel (Medkoo, cat #100690, 20 mg/kg) and paclitaxel-sNHS (n=3/group, 20 mg/kg). […] For quantification of apoptosis, CC-3-stained vs hematoxylin-stained areas were measured with respect to total tumor area (45, 46).
To investigate whether intratumoral injection of TRAP paclitaxel has therapeutic efficacy in vivo, we studied paclitaxel-induced apoptosis in the fibrous, syngeneic KPC 4662 pancreatic adenocarcinoma mouse model. […] For quantification of apoptosis, whole tissue sections were scanned to detect CC-3 positive areas and quantified to assess the percent of whole tumor area undergoing apoptosis. […] Quantification of apoptosis was performed by computationally separating CC-3 stained from hematoxylin stained areas (45). […]
Series [3] can be described thus: In vitro PTX release: hydrolysis of PTX succinic acid in PBS (HPLC). The following applies: for half-life: PBS, 37° C.; for PTX-succinate remaining intact: after 24 hours. Type of series: physicochemical. Here is the method:
In Vitro PTX Release. Hydrolytic studies of PTX succinic acid were carried out at 37° C. in PBS containing 0.01% DMSO and 0.1% Tween 80 at pH 7.4 and pH 6.5. 5.33 μM of PTX-succinic acid was dissolved in a 5 ml of medium and kept continuously stirring at 150 rpm/min. 50 μL of sample was removed at predetermined time intervals of 0, 24, 48, 72 and 96 hours and replaced with 50 μL of fresh media. Removed samples were mixed with 50% of acetonitrile and analyzed using Agilent 1290 HPLC system with Agilent 2.1×50 mm C18 column and mobile phase consisting of 60% ammonium formate and 40% acetonitrile. Concentration of PTX-SA and free PTX were determined using calibration curves.
The hydroxyl group at the C-2′ position is necessary for paclitaxel's anticancer activities. Therefore, the succinate ester must hydrolyze to achieve desired antitumor responses (41). We measured paclitaxel release from PTX-succinate in PBS at 37° C. in both neutral pH and the slightly acidic conditions (pH˜6.5) commonly observed in the tumor microenvironments. Disappearance of the PTX succinate peak and appearance of PTX peak was quantified using HPLC. […] After 24 hours, nearly 82% of PTX-succinate remained intact in acidic conditions, while 54% remained in the neutral condition. […] In contrast at the more acidic pH, paclitaxel continued its accumulation in the release media, with 60% of initial dose observed at 96 hours.

Series [4] relates to U87 tumor. The series is described as follows: Intratumoral anchoring of Cy7-maleimide (IVIS fluorescence). Type of series: in vivo, nude mice. The settings on record: 50 uL of 0.2 mM, 1 week after injection. Here is the method:
FIG. 13 illustrates the intratumoral anchoring of Cy7-maleimide after one week.
To investigate whether active maleimide molecules can anchor to tissue in a tumor, nude mice were injected subcutaneously with U87 tumor cells mixed with Matrigel. Once tumor reached 100 mm^3, Cy7-maleimide (50 uL of 0.2 mM) was injected intratumorally and monitored for fluorescence over 1 week using an IVIS imager. ICG/ICG excitation and emission filters were used for all IVIS images. […] This validated that anchorable drug compounds containing a maleimide tissue binding moiety could efficiently react with thiol moieties present in proteins found within tumors following intratumoral injection.

Series [5] has as its system dermal tissue. Description: Intradermal anchoring of Cy7-maleimide (IVIS fluorescence). Type of series: in vivo, CD-1 mice. Here is the method:
FIG. 12 is a plot showing the percent of the initial injection dose (% ID) maintained one day and one week following injection of Cy7-maleimide alone, Cy7-maleimide plus tris(2-carboxyethyl)phosphine (TCEP), and Cy7-maleimide plus mercaptoethanol (MCE).
To investigate whether maleimide molecules can anchor to dermal tissue by binding to available thiol groups, CD-1 mice were injected intradermally with Cy7-maleimide (50 uL of 0.2 mM) and monitored for fluorescence over 1 week using an IVIS imager. ICG/ICG excitation and emission filters were used for all IVIS images. Cy7-maleimide plus TCEP was used to attempt to increase free thiols by breaking disulfide bonds.

Series [6] deals with U87 tumor. Description: Tumor inhibition and survival after intratumoral or intravenous aldoxorubicin. Type of series: in vivo, nude mice. The following applies: intratumoral 10.5 mg/kg; compared to saline and intravenous aldoxorubicin. From the text: FIGS. 14A-14D show the impact of intratumoral anchoring and local tumor release of a chemotherapeutic agent (aldoxorubicin) functionalized with a maleimide tissue binding moiety. FIG. 14A plots the percent change in tumor volume as a function of days after injection for mice treated with saline injection alone (control), intravenous injection of aldoxorubicin, and intratumoral injection of aldoxorubicin. FIG. 14B is a plot showing the probability of survival for mice treated with saline injection alone (control), intravenous injection of aldoxorubicin, and intratumoral injection of aldoxorubicin. FIG. 14C is a plot comparing tumor volume 7 days after treatment with saline injection alone (control), treatment with intravenous injection of aldoxorubicin, and treatment with intratumoral injection of aldoxorubicin. FIG. 14D is a plot comparing tumor volume 14 days after treatment with saline injection alone (control), treatment with intravenous injection of aldoxorubicin, and treatment with intratumoral injection of aldoxorubicin.
In a further proof-of-principle study, aldoxorubicin was used to validate the concept of anchoring (and subsequent local tumor release) of a chemotherapeutic agent functionalized with a maleimide tissue binding moiety. […] Tumor size and weight were measured at varying intervals following injection. […]

As for `CC(=O)O[C@H]1C(=O)[C@@]2(C)[C@H]([C@H](OC(=O)c3ccccc3)[C@]3(O)C[C@H](OC(=O)[C@H](O)[C@@H](NC(=O)c4ccccc4)c4ccccc4)C(C)=C1C3(C)C)[C@]1(OC(C)=O)CO[C@@H]1C[C@@H]2O` [paclitaxel], the aqueous solubility entry in series [1] was “poorly soluble”. In series [2], the “apoptotic area (CC-3 stained), of total tumor area” value was 27%. Moreover, in series [2] (color saturation analysis), the “necrosis, of tumor area” value is ~30%.
One may read the half-life as the time needed for the level to fall by half in the phase considered. Low values mean rapid decline, high ones slow decline. As to “2′-O-succinyl paclitaxel [PTX-succinate]”, the figures for the half-life in series [3] (neutral pH) and in series [3] (pH 6.5) were ~37 h and ~56 h, respectively. Besides, the “free paclitaxel in release media, of initial dose” value in series [3] (acidic pH (6.5), 96 hours) was 60%. Moreover, the PTX-succinate remaining intact in series [3] (acidic conditions (pH 6.5)) is given as ~82%; in series [3] (neutral condition), 54%. The “free paclitaxel released (maximum)” value in series [3] (neutral pH, 96 hours) amounted to 32%.
In the case of `C[N+]1=C(C=CC2=CC(=CC=C3N(CCCCCC(=O)NCCN4C(=O)C=CC4=O)c4ccccc4C3(C)C)CCC2)C(C)(C)c2ccccc21.[Cl-]` [Cy7-maleimide, cyanine 7 maleimide], the injection dose maintained entry is given as “approximately 18%” in series [4] and “approximately 10%” in series [5] (intradermal, 50 uL of 0.2 mM, after 1 week). Besides, the “skin irritation or skin toxicity” value in series [5] (intradermal injection, monitored over 1 week) is reported as “No skin irritation or skin toxicity was observed”.
Take `COc1cccc2c1C(=O)c1c(O)c3c(c(O)c1C2=O)C[C@@](O)(/C(CO)=N/NC(=O)CCCCCN1C(=O)C=CC1=O)C[C@@H]3O[C@H]1C[C@H](N)[C@H](O)[C@H](C)O1` [aldoxorubicin]: in series [6], the survival probability entry was “improved” and the tumor inhibition result is given as “improved”.
